The record followed here is patent US12398153B2, “Spiro compound serving as ERK inhibitor, and application thereof” (D3 BIO (WUXI) CO., LTD., priority 2019, dated 2025).

For one data set, the system named is HT29 tumor cells. Kind of data set: In vitro cell proliferation inhibition assay (CellTiterGlo). The class given is cell-based. On the procedure:
Assay Example 2. In Vitro Cell Proliferation Inhibition Assay
The ability of compounds to inhibit the proliferation of HT29 tumor cells was measured.
The assay compound was dissolved in 100% DMSO to prepare 10 mM stock solution.
• 1) UV light of a biological safety cabin was turned on, and 30 minutes were counted down; • 2) In a 37° C. water bath, RPMI1640 medium and trypsin were preheated; • 3) After completion of the UV irradiation, the biological safety cabin was opened. The preheated medium, trypsin and phosphate buffered saline (PBS), etc. were wiped with alcohol and placed in the biological safety cabin; • 4) HT29 cells were removed from the incubator, and the old medium was removed in biological safety cabin. 10 ml of PBS was added. The mixture was shaken gently, and then PBS was removed; • 5) 1.5 ml of preheated 0.25% trypsin was added. The culture vessel was shaken horizontally so that the trypsin evenly covered the cells at the bottom, and placed in an incubator for 2 minutes; • 6) Cell digestion was stopped with complete medium, and the cell suspension was pipetted to homogeneity and counted; • 7) According to the result of cell counting, the density of cell suspension was adjusted to 1500 cells per well, and the cell suspension was seeded at 50 μl per well; • 8) The stock solution of compounds was serially diluted in DMSO solution, and compounds were added to cell plate using Tecan;
9) The compound-added cell plate and CellTiterGlo were equilibrated at room temperature, and 25 microliters of CellTiterGlo was then added to each well. The cell plate was shaken for 1-2 minutes and then allowed to stand for 10 minutes. The signal value was then detected. The data were analyzed using XL-Fit, and the IC50 of each compound was calculated.

Another data set deals with ERK2 kinase (Homo sapiens (Human), UniProt P28482). Kind of data set: Assay of in vitro kinase activity (33P-ATP filter-binding, MBP substrate). The class given is biochemical. How it is done: Assay Example 1. Assay of In Vitro Kinase Activity
Sequence of ERK2 kinase (P28482 whole entry): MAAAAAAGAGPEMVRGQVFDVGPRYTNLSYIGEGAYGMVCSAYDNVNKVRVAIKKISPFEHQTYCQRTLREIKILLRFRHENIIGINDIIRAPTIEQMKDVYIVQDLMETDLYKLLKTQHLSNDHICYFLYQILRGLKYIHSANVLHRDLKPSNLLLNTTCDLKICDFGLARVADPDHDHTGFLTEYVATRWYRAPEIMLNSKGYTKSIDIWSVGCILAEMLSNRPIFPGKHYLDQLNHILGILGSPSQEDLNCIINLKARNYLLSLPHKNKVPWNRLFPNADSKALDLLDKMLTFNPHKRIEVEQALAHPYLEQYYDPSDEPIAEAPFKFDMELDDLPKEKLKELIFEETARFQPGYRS
The ability of compounds to inhibit ERK2 kinase activity was measured.
20 mM Hepes (pH 7.5), 10 mM MgCl2, 1 mM ethylenebis(oxyethylenenitrilo)tetraacetic acid (EGTA), 0.02% Brij35, 0.02 mg/mL bovine serum albumin (BSA), 0.1 mM Na3VO4, 2 mM dithiothreitol (DTT), 1% DMSO.
The assay compound was dissolved in 100% DMSO to prepare a stock solution of specific concentration. The compound was serially diluted in DMSO solution using Integra Viaflo Assist smart pipette.
• 1) The substrate MBP was prepared in freshly prepared reaction buffer; • 2) ERK2 kinase was added to the above-mentioned MBP solution and mixed gently; • 3) The compound dissolved in 100% DMSO was added to the kinase reaction system using ultrasound technology (Echo550; nanoliter range), and the mixture was incubated at room temperature for 20 minutes; • 4) ^33P-ATP (specific concentration of […]) was added to the reaction system, and the reaction was started at this time; • 5) The mixture was incubated at room temperature for 2 hours; • 6) The amount of radioactivity was detected by filter-binding method; • 7) ERK2 kinase activity was calculated as the ratio of the remaining kinase activity in the assay sample to the kinase activity of the control group (treated by DMSO). Curve was fitted using Prism (GraphPad software) and IC50 values were calculated. 5.

Data set [1] is described as follows: In vivo DMPK assay in mouse. As to conditions: female BALB/c mice; for Oral DNAUC (AUCPO/Dose) / Cmax: 3 mg/kg orally; for clearance / Vd / bioavailability / half-life / Cmax: mouse, plasma; for clearance / Vd: iv, 1 mg/kg intravenously; for clearance: read-out: Cl (clearance rate); for Vd: read-out: Vdss (distribution volume); for bioavailability / Cmax: po; for bioavailability: 1 mg/kg intravenously and 3 mg/kg orally, read-out: F % (oral bioavailability); for half-life: single administration, read-out: T1/2 (half-life) (converted); for Cmax: read-out: Cmax (maximum concentration). The text has this:
Assay Example 3. Assay of In Vivo DMPK
In vivo DMPK assay in mouse
Female BALB/c mice were used as assay animals to determine the blood concentration of compounds and evaluate the pharmacokinetic behavior after a single administration.
Eight healthy adult female BALB/c mice were selected, wherein 4 mice were in the intravenous injection group and 4 mice were in the oral group. The vehicle in the intravenous injection group was 5% DMSO+95% (20% HP-β-CD). The compound to be assayed was mixed with an appropriate amount of vehicle for intravenous injection, vortexed and sonicated to prepare a clear solution of 0.5 mg/mL. The clear solution was filtered by a microporous membrane, and then ready for use. The vehicle in the oral group was 5% DMSO+95% (20% HP-β-CD). The compound to be assayed was mixed with the vehicle, vortexed and sonicated to prepare a solution of 0.3 mg/mL. Mice were administered 1 mg/kg intravenously or 3 mg/kg orally, and then whole blood was collected for a certain period. Plasma was prepared. The drug concentration was analyzed by LC-MS/MS method, and the pharmacokinetic parameters were calculated by Phoenix WinNonlin software (Pharsight, USA).
Note: DMSO: dimethyl sulfoxide; HP-β-CD: hydroxypropyl-β-cyclodextrin.

Data set [2] has as its system human colon cancer HCT-116 cells. Kind of data set: In vivo efficacy, subcutaneous xenograft tumor of human colon cancer HCT-116 cells in BALB/c nude mouse. As to conditions: 15 mg/kg, PO, QD. How it is done:
Assay Example 4. Assay of In Vivo Efficacy of Subcutaneous Xenograft Tumor of Human Colon Cancer HCT-116 Cells in BALB/c Nude Mouse Model
The anti-tumor effect of WX007 was evaluated using a subcutaneous xenograft tumor model of human colon cancer HCT-116 cells in nude mouse.
• Species: mouse • Strain: BALB/c nude mouse • Age: 6-8 weeks old • Gender: female • Weight: 17-23 grams • Vendor: Laboratory Animal Management Department, Shanghai Institute for Biomedical and Pharmaceutical Technologies • Animal certificate number: 20180006020214 3. Assay Procedure: • 1) Assay cells and culture: Human colon cancer HCT-116 cells were cultured in monolayer in vitro. […] When the cell saturation was 80%-90% and the amount reached the requirement, the cells were harvested, counted, and inoculated; • 2) Tumor tissue inoculation and grouping: 0.2 mL (5×10^6) of HCT-116 cells were subcutaneously inoculated into the right armpit of each mouse. […]
• 3) Daily observation of assay animals: The development of this assay protocol and any modifications were evaluated and approved by the Institutional Animal Care and Use Committee (IACUC). […] Animals were monitored daily for health and death. […] The compound was formulated once a week. • 5) Tumor measurement and assay indicator: • a) Tumor diameter was measured twice a week with a vernier caliper. […]
For orientation: In xenograft studies the graft and the host belong to different species.

As usually defined, the IC50 is the concentration that gives 50% inhibition. Read a low IC50 as higher potency. The clearance is a measure of how efficiently the substance is removed, as volume per time. A word on the bioavailability: it is dose-corrected exposure relative to a reference, in per cent.

Where two headings read alike, the source gives them in different places.

Consider `Cn1nccc1Nc1nccc(-c2nc3c(s2)[C@@]2(CCOC2)N(Cc2cccc(Cl)c2)C3=O)n1` [WX001A], for which the IC50 in the data set on HT29 tumor cells was 21 nM; on ERK2 kinase it was 0.31 nM.

With `Cn1nccc1Nc1nccc(-c2nc3c(s2)C2(CCOCC2)N(Cc2cccc(Cl)c2)C3=O)n1` [WX002], the IC50 in the data set with HT29 tumor cells (Homo sapiens, HT-29) stood at 73 nM; at ERK2 kinase, 0.4 nM.

In the case of `O=C1c2nc(-c3ccnc(NC4CCOCC4)n3)sc2C2(CCOCC2)N1Cc1cccc(Cl)c1` [WX003], the IC50 in the data set on HT29 tumor cells (Homo sapiens, HT-29) came to 69 nM; on ERK2 kinase, 0.29 nM.

`Cn1nccc1Nc1nccc(-c2nc3c(s2)C2(COC2)N(Cc2cccc(F)c2)C3=O)n1` [WX004]: the IC50 stood at 125 nM in the data set on HT29 tumor cells (Homo sapiens, HT-29) and 1.1 nM on ERK2 kinase.

On to `Cn1nccc1Nc1nccc(-c2nc3c(s2)C2(COC2)N(Cc2cccc(Cl)c2)C3=O)n1` [WX005], for which the half-maximal inhibitory concentration (IC50) with HT29 tumor cells (Homo sapiens, HT-29) came out at 49 nM; on ERK2 kinase, 0.36 nM.

Consider `Cc1cnc(Nc2ccnn2C)nc1-c1nc2c(s1)C1(COC1)N(Cc1cccc(F)c1)C2=O` [WX006], for which half-maximal inhibition in the data set with HT29 tumor cells (Homo sapiens, HT-29) (IC50) required 14 nM. Further, the IC50 on ERK2 kinase came to 0.94 nM. In data set [1], the “Oral DNAUC (AUCPO/Dose)” value worked out at 1356 nM · h/mpk, the clearance is 17.2 mL/min/kg, the Vd turned out to be 1.7 L/kg and the bioavailability was found to be 70%. Besides, in data set [1], the half-life was 1.4 h and the Cmax was determined as 1400 nM.

Regarding `Cc1cnc(Nc2ccnn2C)nc1-c1nc2c(s1)C1(COC1)N(Cc1cccc(Cl)c1)C2=O` [WX007], the IC50 with HT29 tumor cells (Homo sapiens, HT-29) is 11 nM. Also, the “TGI (inhibition rate of tumor growth)” value in data set [2] (18th day, HCT-116 xenograft in nude mouse) was found to be 62%. For the same compound, in data set [2] (to the 18th day), the “Body weight of assay animals” value is on record as “did not decrease significantly”. The IC50 on ERK2 kinase came out at 0.48 nM. In addition, in data set [1], the “Oral DNAUC (AUCPO/Dose)” value is reported as 1086 nM · h/mpk, the clearance was determined as 14.4 mL/min/kg, the Vd worked out at 1.7 L/kg and the bioavailability was found to be 46%. Moreover, in data set [1], the half-life was 1.3 h and the Cmax was determined as 595 nM.
